Measurements reported in patent US9447114B2, “Thieno- and furo[2,3-d]pyrimidine-2,4[1H,3H]-dione derivatives” (Hydra Biosciences, Inc., priority 2014, dated 2016).

Assays:
TRPC5 channel [1] = biological target: T1, TRPC5 channel (Homo sapiens (Human), UniProt Q9UL62); assay: Whole-cell patch clamp of TRPC5 current; assay type: cell-based; settings: TRPC5-expressing HEK293 TREx cells, current activated by 80 μM LaCl3 and 1.4 μM free Ca2+ in pipette, IC50 estimated
Description: Patch clamp experiments permit the detection of currents through the TRPC5 channel in the cell line described above. In normal whole-cell patch clamp recordings, a glass electrode is brought into contact with a single cell and a high-resistance (gigaohm) seal is established with the cell membrane. The membrane is then ruptured to achieve the whole-cell configuration, permitting control of the voltage of the cell membrane and measurement of currents flowing across the membrane using the amplifier attached to the electrode and resulting in the replacement of cytoplasm with the pipette solution. A perfusion system permits control of the extracellular solution, including the addition of blockers and activators of the current. The current can be activated by including 1.4 μM free Ca^2+ in the pipette (intracellular) solution, and 80 μM LaCl3 in the extracellular solution.
TRPC5 cells were induced 20-48 hours, removed from growth plates, and replated at low density (to attain good single-cell physical separation) on glass coverslips for measurement. In some cases, cells were grown in low density overnight on glass coverslips. Patch clamp recordings were made in the whole-cell mode with a holding potential of −40 mV. Every 5 seconds, a voltage ramp was applied from −120 to +100 mV, 400 ms in duration. Currents elicited were quantified at −80 mV and +80 mV. The internal solution consisted of 140 mM cesium aspartate, 10 mM HEDTA, 2 mM CaCl2, 2.27 mM MgCl2 and 10 mM HEPES, pH 7.2, with 1,400 nM calculated free Ca^2+. The external solution consisted of 150 mM NaCl, 4.5 mM KCl, 1 mM MgCl2, 2 mM CaCl2 10 mM HEPES, 10 mM glucose, 1 mM EGTA, pH 7.4. Upon addition of LaCl3, TRPC5 current was induced only in TRPC5-expressing cells and not in parental HEK293 TREx cells. Removal of the LaCl3 stimulus causes most of the current to go away. Potential blockers were tested for ability to block both inward and outward currents in the continued presence of LaCl3.
IC50 of a compound of Formula (I) was estimated by testing the compound at 5 μM and 500 nM. […] IC50 for a compound of Formula (I) between 500 nM and 5 μM was similarly estimated.

TRPC5 channel [2] = biological target: T1, TRPC5 channel; assay: High throughput screening assay: intracellular Ca2+ rise, Fluo4 cell-based fluorescence; settings: HEK293/TREx cells inducibly expressing TRPC5, high-Ca2+ Ringer, 14 mM Ca2+ final, triplicate, 0.027-20 μM
Description: The assay depended on detection of the rise in intracellular Ca2+ concentration ([Ca2+]i) following channel activation in cells inducibly expressing the TRPC5 channel. Ca2+ rise was quantified with the use of fluorescent Ca2+ indicators that were loaded into cells and thereafter indicated the [Ca2+]i Ca2+ influx followed activation of the TRPC5 channel. Compounds inhibiting the [Ca2+]i rise were considered hits for further investigation.
The commercially available HEK293/TREx line (Invitrogen) was stably transfected with a TRPC5 construct and screened by conventional calcium imaging to find clones with TRPC5 expression following stimulation with 1 μg/ml tetracycline. These cells were maintained in the growth medium recommended by the manufacturer supplemented with 100 μg/ml hygromycin to promote retention of the TRPC5 construct. After growing to near confluency, cells were plated at a density of ˜35,000 cells/well in 384 well CellBind plates (Corning) in the presence of 1 μg/ml tetracycline, and allowed to grow for 20-30 hrs. A nearly confluent monolayer resulted. Cells were then loaded with Ca2+ dye: Fura-2/AM or Fluo4/AM was added to the wells to a final concentration of 4 μM or 0.5 μM, respectively, and incubated for 80 min or 60 min, respectively, at room temperature. Supernatant was then removed from the cells by inverting plates with a sharp flick, and 25 μl Hank's Balanced Salt Solution (HBSS; 0.185 g/l D-glucose, 0.9767 g/l MgS04 (anhydrous), 0.4 g/l KCl, 0.06 g/l KH2PO4 (anhydrous), 0.35 g/l NaHCO3, 8.0 g/l NaCl, and 0.04788 g/l Na2HPO4 (anhydrous); pH 7.4) was then added to each well. Following ˜0.5 hour for recovery from loading, cells were assayed using the Hamamatsu FDSS 6000 system, which permitted illumination alternately at 340 nm and 380 nm for Fura-2 experiments, or at 485 nm for Fluo4 experiments. Frames were acquired at a rate of 0.2 Hz. During the assay, the plates were continuously vortexed, with pipette mixing of wells following addition of each reagent. For the screening assay, 26 μl of a diluted compound stock (at 50 μM) was added to each well for 2 minutes following the collection of a short (4 frame) baseline. 13 μl 62 mM high-Ca2+Ringer solution (4.17 ml of normal ringer (with 2 mM Ca2+) plus 5.83 ml of isotonic calcium ringer (105 mM Ca2+; in this ringer all sodium has been replaced with calcium)) was then added to each well, achieving a final concentration of 14 mM Ca2+ and 10 μM test compound. Data was collected for ˜3 minutes following addition of high Ca2+Ringer, where the fluorescent intensity (for Fluo4) and the F340/F380 ratio (for Fura-2) were proportional to the [Ca2+]i Negative controls consisted of HEK293/TREx TRPC5 cells exposed to high Ca2+ solution, but no compound. Positive control conditions consisted of addition of 2-APB, a promiscuous blocker of TRPC5 and other channels, to columns 23 and 24 of the plates, to a final concentration of 200 μM. These controls defined a screening window, and “hits” were defined as those compounds inhibiting the fluorescence response by at least 40%. IC50 values were determined for compounds defined as “hits.” The Fluo4 cell-based fluorescence assay was used to determine the intracellular Ca2+ concentration in the presence of varying drug concentration. Final concentrations of compounds tested were 20 μM, 6.667 μM, 2.222 μM, 0.741 μM, 0.247 μM, 0.082 μM, and 0.027 μM. Compounds were tested in triplicate at all concentrations. Standard software was used to fit IC50 curves.
Additionally or alternatively, efficacy can be represented as % inhibition in the presence (of a given concentration of compound) versus the absence of compound or in comparison to a control compound. For example, efficacy can be represented as % inhibition of ion flux in the presence versus the absence of compound.

T1 sequence (Q9UL62 whole entry, the tested form may be a part): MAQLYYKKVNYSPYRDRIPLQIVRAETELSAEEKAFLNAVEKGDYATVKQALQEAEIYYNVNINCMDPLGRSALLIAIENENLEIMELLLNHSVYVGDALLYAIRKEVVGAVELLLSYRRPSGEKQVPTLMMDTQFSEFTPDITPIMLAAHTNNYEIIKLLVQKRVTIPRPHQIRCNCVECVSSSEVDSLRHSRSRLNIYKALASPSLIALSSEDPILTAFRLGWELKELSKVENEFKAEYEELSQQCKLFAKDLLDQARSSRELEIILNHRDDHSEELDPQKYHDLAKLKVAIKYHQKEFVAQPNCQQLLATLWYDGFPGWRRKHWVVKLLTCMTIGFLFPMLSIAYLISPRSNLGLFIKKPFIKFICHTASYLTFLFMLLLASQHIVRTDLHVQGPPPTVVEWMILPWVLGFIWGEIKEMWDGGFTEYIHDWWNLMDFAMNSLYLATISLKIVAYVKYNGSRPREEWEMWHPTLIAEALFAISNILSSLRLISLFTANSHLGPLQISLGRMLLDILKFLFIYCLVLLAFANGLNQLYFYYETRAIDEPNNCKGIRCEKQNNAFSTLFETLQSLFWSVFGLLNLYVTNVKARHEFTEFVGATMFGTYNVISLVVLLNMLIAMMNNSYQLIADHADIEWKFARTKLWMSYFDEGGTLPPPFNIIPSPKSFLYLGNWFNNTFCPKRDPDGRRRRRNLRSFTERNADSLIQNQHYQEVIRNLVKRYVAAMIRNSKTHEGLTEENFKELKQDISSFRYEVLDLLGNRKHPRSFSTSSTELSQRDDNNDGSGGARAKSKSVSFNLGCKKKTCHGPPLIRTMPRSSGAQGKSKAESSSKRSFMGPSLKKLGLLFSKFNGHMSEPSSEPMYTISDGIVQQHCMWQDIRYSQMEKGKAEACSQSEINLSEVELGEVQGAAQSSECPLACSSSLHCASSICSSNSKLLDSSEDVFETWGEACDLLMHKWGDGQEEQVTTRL

IC50 (TRPC5 channel [1]): 15.7 nM
IC50 (TRPC5 channel [2]): 168 nM
SMILES: Cc1c(-c2ccc(Cl)cc2)sc2c1c(=O)n(CCCO)c(=O)n2C [Compound 25, 6-(4-chlorophenyl)-3-(3-hydroxypropyl)-1,5-dimethylthieno[2,3-d]pyrimidine-2,4(1H,3H)-dione]
